Assay results published in patent US20250304563A1, “ACTIVATORS OF EFFECTOR T CELLS” (Orum Therapeutics, Inc., priority 2022, published 2025).

Biological target: Cbl-b (36-427 aa truncated form, N-terminus Avi-tag) (Homo sapiens (Human), UniProt Q13191)
Test: Cbl-b binding: TR-FRET displacement of BODIPY-FL probe
Description: Compounds were assessed for binding activity to Cbl-b by their ability to compete with and displace a probe comprised of BODIPY-FL fluorophore conjugated to a Cbl-b inhibitor (see Example 54 in WO2020264398). In the assay, a 36-427 aa truncated form of Cbl-b with an N-terminus Avi-tag was incubated 20 mM HEPES pH 7.5, 150 mM NaCl, 0.01% Triton X-100, 0.1% BSA, 0.5 mM TCEP buffer with streptavidin-terbium (Cisbio). After one hour of incubation at room temperature, 1 uM each of fluorescent probe and compound were combined with the reaction mixture. Compounds with Cbl-b binding activity competitively displace the fluorophore tagged inhibitor thereby disrupting the FRET signal from the terbium-BODIPY-FL complex. The reaction mixtures were incubated for one additional hour at room temperature to allow for competition between inhibitor and candidate compounds to occur. The time resolved FRET (TR-FRET) signal was then read at 520/620 […] (excitation/emission) using a Spectramax M5e plate reader (Molecular Devices) to measure probe displacement. Compounds with Cbl-b binding activity had decreased FRET signal owing to disruption of the terbium-BODIPY-FL FRET complex. Standard methods in PRISM were used to calculate the compound IC50 values from the experimental data.

Chain of Cbl-b (36-427 aa truncated form, N-terminus Avi-tag) (Q13191 36-427): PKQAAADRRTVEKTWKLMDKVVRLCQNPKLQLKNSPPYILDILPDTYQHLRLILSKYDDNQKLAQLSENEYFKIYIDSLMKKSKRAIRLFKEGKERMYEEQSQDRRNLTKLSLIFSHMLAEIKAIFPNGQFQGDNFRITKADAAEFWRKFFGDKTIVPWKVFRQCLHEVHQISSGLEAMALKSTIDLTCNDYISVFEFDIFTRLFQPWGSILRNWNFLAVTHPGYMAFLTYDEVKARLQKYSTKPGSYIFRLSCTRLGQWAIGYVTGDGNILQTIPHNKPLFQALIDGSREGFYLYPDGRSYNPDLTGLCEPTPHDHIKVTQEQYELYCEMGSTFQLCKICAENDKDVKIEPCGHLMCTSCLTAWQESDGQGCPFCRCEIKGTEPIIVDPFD

SMILES | IC50 [nM]
C#CCN1CCN(c2cc(C3(Cc4nncn4C)COC3)cc(N3Cc4c(cc(CN5CCC[C@H](C)C5)cc4C(F)(F)F)C3=O)n2)CC1 [Compound 127, (S)-2-(4-(3-((4-methyl-4H-1,2,4-triazol-3-yl)methyl)oxetan-3-yl)-6-(4-(prop-2-yn-1-yl)piperazin-1-yl)pyridin-2-yl)-6-((3-methylpiperidin-1-yl)methyl)-4-(trifluoromethyl)isoindolin-1-one] | 20 to 100
C[C@H]1CCCN(Cc2cc3c(c(C(F)(F)F)c2)CN(c2cc(C4(Cc5nncn5C)COC4)cc(N4CCN(CC#N)CC4)n2)C3=O)C1 [Compound 128, (S)-2-(4-(4-(3-((4-methyl-4H-1,2,4-triazol-3-yl)methyl)oxetan-3-yl)-6-(6-((3-methylpiperidin-1-yl)methyl)-1-oxo-4-(trifluoromethyl)isoindolin-2-yl)pyridin-2-yl)piperazin-1-yl)acetonitrile] | 20 to 100
Cc1cn(CCNc2cc(C3(Cc4nncn4C)COC3)cc(N3Cc4c(cc(CN5CCC[C@H](C)C5)cc4C(F)(F)F)C3=O)n2)nn1 [Compound 129, (S)-2-(6-((2-(4-methyl-1H-1,2,3-triazol-1-yl)ethyl)amino)-4-(3-((4-methyl-4H-1,2,4-triazol-3-yl)methyl)oxetan-3-yl)pyridin-2-yl)-6-((3-methylpiperidin-1-yl)methyl)-4-(trifluoromethyl)isoindolin-1-one] | 20 to 100
C[C@H]1CCCN(Cc2cc3c(c(C(F)(F)F)c2)CN(c2cc(C4(Cc5nncn5C)COC4)cc(N4CCN(C(=O)Cc5nnn[nH]5)CC4)n2)C3=O)C1 [Compound 131, (S)-2-(6-(4-(2-(1H-tetrazol-5-yl)acetyl)piperazin-1-yl)-4-(3-((4-methyl-4H-1,2,4-triazol-3-yl)methyl)oxetan-3-yl)pyridin-2-yl)-6-((3-methylpiperidin-1-yl)methyl)-4-(trifluoromethyl)isoindolin-1-one] | 20 to 100

Next, values leading:

IC50 [nM] | SMILES
20 to 100 | C[C@H]1CCCN(Cc2cc3c(c(C(F)(F)F)c2)CN(c2cc(C4(Cc5nncn5C)COC4)cc(N4CCN(C(=O)CN=[N+]=[N-])CC4)n2)C3=O)C1 [Compound 132, (S)-2-(6-(4-(2-azidoacetyl)piperazin-1-yl)-4-(3-((4-methyl-4H-1,2,4-triazol-3-yl)methyl)oxetan-3-yl)pyridin-2-yl)-6-((3-methylpiperidin-1-yl)methyl)-4-(trifluoromethyl)isoindolin-1-one]
5.01 to 20 | C=CCS(=O)(=O)N1CCN(c2cc(C3(Cc4nncn4C)COC3)cc(N3Cc4c(cc(CN5CCC[C@H](C)C5)cc4C(F)(F)F)C3=O)n2)CC1 [Compound 133, (S)-2-(6-(4-(allylsulfonyl)piperazin-1-yl)-4-(3-((4-methyl-4H-1,2,4-triazol-3-yl)methyl)oxetan-3-yl)pyridin-2-yl)-6-((3-methylpiperidin-1-yl)methyl)-4-(trifluoromethyl)isoindolin-1-one]
5.01 to 20 | C[C@H]1CCCN(Cc2cc3c(c(C(F)(F)F)c2)CN(c2cc(C4(Cc5nncn5C)COC4)cc(N4CCNCC4)n2)C3=O)C1 [Compound 140, (S)-2-(4-(3-((4-methyl-4H-1,2,4-triazol-3-yl)methyl)oxetan-3-yl)-6-(piperazin-1-yl)pyridin-2-yl)-6-((3-methylpiperidin-1-yl)methyl)-4-(trifluoromethyl)isoindolin-1-one; trifluoro acetic acid]
1 to 5 | C[C@H]1CCCN(Cc2cc3c(c(C(F)(F)F)c2)CN(c2cc(C4(Cc5nncn5C)COC4)cc(NCCCC#N)n2)C3=O)C1 [Compound 143, 4-[(4-{3-[(4-methyl-1,2,4-triazol-3-yl)methyl]oxetan-3-yl}-6-(6-{[(3S)-3-methylpiperidin-1-yl]methyl}-1-oxo-4-(trifluoromethyl)-3H-isoindol-2-yl)pyridin-2-yl)amino]butanenitrile; trifluoroacetic acid]
